Measured values published in ChEMBL document CHEMBL3044646, “Management of tomato leaf mould caused by Cladosporium fulvum with trifloxystrobin” (2007).

Assays:
Type in all cases: functional
Fulvia fulva [1] = experiment: Antifungal activity against Passalora fulva infected tomato cultivar Alma F1 plants grown in growth chamber assessed as inhibition of sporulation at 10 ug a.i./ml applied at 15 days post-inoculation after appearance of symptoms followed by incubation in growth chamber for 72 hr relative to control
Fulvia fulva [2] = experiment: Antifungal activity against Passalora fulva infected tomato cultivar Alma F1 plants grown in growth chamber assessed as reduction in lesions on leaf at 10 ug a.i./ml sprayed 24 hr prior to inoculation measured after 22 days relative to control; parameters: scale not given: the % may be the effect or the level left
Fulvia fulva [3] = experiment: Antifungal activity against Passalora fulva infected tomato cultivar Alma F1 plants grown in growth chamber assessed as reduction in lesions on leaf at 5 ug a.i./ml sprayed 96 hr prior to inoculation measured after 22 days relative to control; parameters: scale not given: the % may be the effect or the level left
Fulvia fulva [4] = experiment: Antifungal activity against Passalora fulva infected tomato cultivar Alma F1 plants grown in growth chamber assessed as reduction in lesions on leaf at 10 ug a.i./ml sprayed 96 hr prior to inoculation measured after 22 days relative to control; parameters: scale not given: the % may be the effect or the level left
Fulvia fulva [5] = experiment: Antifungal activity against Passalora fulva infected tomato cultivar Alma F1 plants grown in growth chamber assessed as reduction in lesions on leaf at 10 ug a.i./ml sprayed 48 hr prior to inoculation measured after 22 days relative to control; parameters: scale not given: the % may be the effect or the level left
Fulvia fulva [6] = experiment: Antifungal activity against Passalora fulva infected tomato cultivar Alma F1 plants grown in growth chamber assessed as reduction in lesions on leaf at 10 ug a.i./ml sprayed 96 hr post-inoculation measured after 22 days relative to control; parameters: scale not given: the % may be the effect or the level left
Fulvia fulva [7] = experiment: Antifungal activity against Passalora fulva infected tomato cultivar Alma F1 plants grown in growth chamber assessed as reduction in lesions on leaf at 20 ug a.i./ml sprayed 96 hr post-inoculation measured after 22 days relative to control; parameters: scale not given: the % may be the effect or the level left
Fulvia fulva [8] = experiment: Antifungal activity against Passalora fulva infected tomato cultivar Alma F1 plants grown in growth chamber assessed as reduction in lesions on leaf at 5 ug a.i./ml sprayed 24 hr post-inoculation measured after 22 days relative to control; parameters: scale not given: the % may be the effect or the level left
Fulvia fulva [9] = experiment: Antifungal activity against Passalora fulva infected tomato cultivar Alma F1 plants grown in growth chamber assessed as reduction in lesions on leaf at 5 ug a.i./ml sprayed 48 hr post-inoculation measured after 22 days relative to control; parameters: scale not given: the % may be the effect or the level left
Fulvia fulva [10] = experiment: Antifungal activity against Passalora fulva infected tomato cultivar Alma F1 plants grown in growth chamber assessed as reduction in lesions on leaf at 5 ug a.i./ml sprayed 96 hr post-inoculation measured after 22 days relative to control; parameters: scale not given: the % may be the effect or the level left
Fulvia fulva [11] = experiment: Antifungal activity against Passalora fulva infected tomato cultivar Alma F1 plants grown in growth chamber assessed as reduction in lesions on leaf at 20 ug a.i./ml sprayed 24 hr post-inoculation measured after 22 days relative to control; parameters: scale not given: the % may be the effect or the level left
Fulvia fulva [12] = experiment: Antifungal activity against Passalora fulva infected tomato cultivar Alma F1 plants grown in growth chamber assessed as inhibition of sporulation at 5 ug a.i./ml applied at 15 days post-inoculation after appearance of symptoms followed by incubation in growth chamber for 72 hr relative to control
Fulvia fulva [13] = experiment: Antifungal activity against Passalora fulva infected tomato cultivar Alma F1 plants grown in growth chamber assessed as inhibition of sporulation at 20 ug a.i./ml applied at 15 days post-inoculation after appearance of symptoms followed by incubation in growth chamber for 72 hr relative to control
Fulvia fulva [14] = experiment: Antifungal activity against Passalora fulva infected tomato cultivar Alma F1 plants grown in growth chamber assessed as reduction in lesions on leaf at 5 ug a.i./ml sprayed 24 hr prior to inoculation measured after 22 days relative to control; parameters: scale not given: the % may be the effect or the level left
Fulvia fulva [15] = experiment: Antifungal activity against Passalora fulva infected tomato cultivar Alma F1 plants grown in growth chamber assessed as reduction in lesions on leaf at 10 ug a.i./ml sprayed 24 hr post-inoculation measured after 22 days relative to control; parameters: scale not given: the % may be the effect or the level left
Fulvia fulva [16] = experiment: Antifungal activity against Passalora fulva infected tomato cultivar Alma F1 plants grown in growth chamber assessed as reduction in lesions on leaf at 20 ug a.i./ml sprayed 24 hr prior to inoculation measured after 22 days relative to control; parameters: scale not given: the % may be the effect or the level left
Fulvia fulva [17] = experiment: Antifungal activity against Passalora fulva infected tomato cultivar Alma F1 plants grown in growth chamber assessed as reduction in lesions on leaf at 5 ug a.i./ml sprayed 48 hr prior to inoculation measured after 22 days relative to control; parameters: scale not given: the % may be the effect or the level left
Fulvia fulva [18] = experiment: Antifungal activity against Passalora fulva infected tomato cultivar Alma F1 plants grown in growth chamber assessed as reduction in lesions on leaf at 10 ug a.i./ml sprayed 48 hr post-inoculation measured after 22 days relative to control; parameters: scale not given: the % may be the effect or the level left
Fulvia fulva [19] = experiment: Antifungal activity against Passalora fulva infected tomato cultivar Alma F1 plants grown in growth chamber assessed as reduction in lesions on leaf at 20 ug a.i./ml sprayed 48 hr post-inoculation measured after 22 days relative to control; parameters: scale not given: the % may be the effect or the level left
Fulvia fulva [20] = experiment: Antifungal activity against Passalora fulva infected tomato cultivar Alma F1 plants grown in growth chamber assessed as reduction in lesions on leaf at 20 ug a.i./ml sprayed 96 hr prior to inoculation measured after 22 days relative to control; parameters: scale not given: the % may be the effect or the level left
Fulvia fulva [21] = experiment: Antifungal activity against Passalora fulva infected tomato cultivar Alma F1 plants grown in growth chamber assessed as reduction in lesions on leaf at 20 ug a.i./ml sprayed 48 hr prior to inoculation measured after 22 days relative to control; parameters: scale not given: the % may be the effect or the level left
Fulvia fulva [22] = experiment: Antifungal activity against Passalora fulva infected tomato cultivar Alma F1 plants grown in growth chamber assessed as reduction in lesions on leaf at 100 ug a.i./ml sprayed 96 hr post-inoculation measured after 22 days relative to control; parameters: scale not given: the % may be the effect or the level left
Fulvia fulva [23] = experiment: Antifungal activity against Passalora fulva infected tomato cultivar Alma F1 plants grown in growth chamber assessed as reduction in lesions on leaf at 100 ug a.i./ml sprayed 48 hr prior to inoculation measured after 22 days relative to control; parameters: scale not given: the % may be the effect or the level left
Fulvia fulva [24] = experiment: Antifungal activity against Passalora fulva infected tomato cultivar Alma F1 plants grown in growth chamber assessed as inhibition of sporulation at 100 ug a.i./ml applied at 15 days post-inoculation after appearance of symptoms followed by incubation in growth chamber for 72 hr relative to control; parameters: scale not given: the % may be the effect or the level left
Fulvia fulva [25] = experiment: Antifungal activity against Passalora fulva infected tomato cultivar Alma F1 plants grown in growth chamber assessed as reduction in lesions on leaf at 100 ug a.i./ml sprayed 48 hr post-inoculation measured after 22 days relative to control; parameters: scale not given: the % may be the effect or the level left
Fulvia fulva [26] = experiment: Antifungal activity against Passalora fulva infected tomato cultivar Alma F1 plants grown in growth chamber assessed as reduction in lesions on leaf at 100 ug a.i./ml sprayed 24 hr prior to inoculation measured after 22 days relative to control; parameters: scale not given: the % may be the effect or the level left
Fulvia fulva [27] = experiment: Antifungal activity against Passalora fulva infected tomato cultivar Alma F1 plants grown in growth chamber assessed as reduction in lesions on leaf at 100 ug a.i./ml sprayed 96 hr prior to inoculation measured after 22 days relative to control; parameters: scale not given: the % may be the effect or the level left
Fulvia fulva [28] = experiment: Antifungal activity against Passalora fulva infected tomato cultivar Alma F1 plants grown in growth chamber assessed as reduction in lesions on leaf at 100 ug a.i./ml sprayed 24 hr post-inoculation measured after 22 days relative to control; parameters: scale not given: the % may be the effect or the level left

## CO/N=C(\C(=O)OC)c1ccccc1CO/N=C(\C)c1cccc(C(F)(F)F)c1
Fulvia fulva [1]
  inhibition (INH): 55.7%
Fulvia fulva [2]
  Activity: 93.9%
Fulvia fulva [3]
  Activity: 72.8%
Fulvia fulva [4]
  Activity: 85.3%
Fulvia fulva [5]
  Activity: 90.9%
Fulvia fulva [6]
  Activity: 60.1%
Fulvia fulva [7]
  Activity: 66.7%
Fulvia fulva [8]
  Activity: 69.9%
Fulvia fulva [9]
  Activity: 60.9%
Fulvia fulva [10]
  Activity: 45.7%
Fulvia fulva [11]
  Activity: 93.3%
Fulvia fulva [12]
  inhibition (INH): 23.2%
Fulvia fulva [13]
  inhibition (INH): 85.1%
Fulvia fulva [14]
  Activity: 88.2%
Fulvia fulva [15]
  Activity: 89%
Fulvia fulva [16]
  Activity: 96.5%
Fulvia fulva [17]
  Activity: 85.3%
Fulvia fulva [18]
  Activity: 76.1%
Fulvia fulva [19]
  Activity: 94.5%
Fulvia fulva [20]
  Activity: 94%
Fulvia fulva [21]
  Activity: 96.5%

## N#Cc1c(Cl)c(Cl)c(Cl)c(C#N)c1Cl [CHLOROTHALONIL]
Fulvia fulva [22]
  Activity: 48.4%
Fulvia fulva [23]
  Activity: 95.2%
Fulvia fulva [24]
  Activity: 43.2%
Fulvia fulva [25]
  Activity: 73.4%
Fulvia fulva [26]
  Activity: 96.5%
Fulvia fulva [27]
  Activity: 84.4%
Fulvia fulva [28]
  Activity: 91%
